Results on 15 compounds are retold here after patent publication US11964967B2, “Cardiac sarcomere inhibitors” (Cytokinetics, Inc., priority 2018, dated 2024).

The structures appear in SMILES notation.

The assay deals with T1, bovine cardiac myofibrils (Bos taurus, UniProt Q9BE39).
T1 construct: full-length cardiac myosin in the context of the native sarcomere; from tissue; host or cells: bovine cardiac left ventricular tissue, homogenized with detergent (triton X-100)
The experiment in a line: Skinned bovine cardiac myofibril ATPase assay (PK/LDH-coupled). It is filed as biochemical. The following applies: inhibition of steady-state ATPase activity of bovine cardiac myofibrils, calcium at 75% activation (pCa75), PM12 buffer pH 6.8; for IC50: read-out: CDMF75 IC50. The protocol: To evaluate the effect of compounds on the ATPase activity of full-length cardiac myosin in the context of the native sarcomere, skinned myofibril assays were performed. Bovine cardiac myofibrils were obtained by homogenizing bovine cardiac left ventricular tissue in the presence of a detergent such as triton X-100. Such treatment removes membranes and a majority of the soluble cytoplasmic proteins but leaves intact the cardiac sarcomeric acto-myosin apparatus. Myofibril preparations retain the ability to hydrolyze ATP in an Ca^2+ regulated manner ATPase activities of such myofibril preparations in the presence and absence of compounds were assayed at Ca^2+ concentrations activating to a defined fraction of the maximal rate (i.e., 25%, 75%). Small molecule agents were assessed for their ability to inhibit the steady-state ATPase activity of bovine cardiac myofibrils using pyruvate kinase and lactate dehydrogenase (PK/LDH)-coupled enzyme system. This assay regenerates myosin-produced ADP into ATP by oxidizing NADH, producing an absorbance change at 340 nm. Prior to testing small molecule agents, the bovine cardiac myofibrils were assessed for their calcium responsiveness and the calcium concentration that achieves either a 50% (pCa50) or 75% (pCa75) activation of the myofibril system was chosen as the final condition for assessing the inhibitory activity of the small molecule agents. All enzymatic activity was measured in a buffered solution containing 12 mM PIPES (piperazine-N,N′-bis(2-ethanesulfonic acid), 2 mM magnesium chloride at pH 6.8 (PM 12 buffer). Final assay conditions were 1 mg/mL of bovine cardiac myofibrils, 4 U/mL pyruvate kinase, 6 U/mL lactate dehydrogenase, 50 μM ATP, 0.1 mg/mL BSA (bovine serum albumin), 10 ppm antifoam, 1 mM DTT, 0.5 mM NADH, 1.5 mM PEP, 0.6 mM EGTA, and an amount of CaCl2) sufficient to achieve either 50% or 75% activation of the myofibril ATPase activity. Results for compounds tested are provided in Table A. Compounds tested were prepared in accordance with the synthetic procedures described herein.

T1 sequence (Q9BE39 whole entry): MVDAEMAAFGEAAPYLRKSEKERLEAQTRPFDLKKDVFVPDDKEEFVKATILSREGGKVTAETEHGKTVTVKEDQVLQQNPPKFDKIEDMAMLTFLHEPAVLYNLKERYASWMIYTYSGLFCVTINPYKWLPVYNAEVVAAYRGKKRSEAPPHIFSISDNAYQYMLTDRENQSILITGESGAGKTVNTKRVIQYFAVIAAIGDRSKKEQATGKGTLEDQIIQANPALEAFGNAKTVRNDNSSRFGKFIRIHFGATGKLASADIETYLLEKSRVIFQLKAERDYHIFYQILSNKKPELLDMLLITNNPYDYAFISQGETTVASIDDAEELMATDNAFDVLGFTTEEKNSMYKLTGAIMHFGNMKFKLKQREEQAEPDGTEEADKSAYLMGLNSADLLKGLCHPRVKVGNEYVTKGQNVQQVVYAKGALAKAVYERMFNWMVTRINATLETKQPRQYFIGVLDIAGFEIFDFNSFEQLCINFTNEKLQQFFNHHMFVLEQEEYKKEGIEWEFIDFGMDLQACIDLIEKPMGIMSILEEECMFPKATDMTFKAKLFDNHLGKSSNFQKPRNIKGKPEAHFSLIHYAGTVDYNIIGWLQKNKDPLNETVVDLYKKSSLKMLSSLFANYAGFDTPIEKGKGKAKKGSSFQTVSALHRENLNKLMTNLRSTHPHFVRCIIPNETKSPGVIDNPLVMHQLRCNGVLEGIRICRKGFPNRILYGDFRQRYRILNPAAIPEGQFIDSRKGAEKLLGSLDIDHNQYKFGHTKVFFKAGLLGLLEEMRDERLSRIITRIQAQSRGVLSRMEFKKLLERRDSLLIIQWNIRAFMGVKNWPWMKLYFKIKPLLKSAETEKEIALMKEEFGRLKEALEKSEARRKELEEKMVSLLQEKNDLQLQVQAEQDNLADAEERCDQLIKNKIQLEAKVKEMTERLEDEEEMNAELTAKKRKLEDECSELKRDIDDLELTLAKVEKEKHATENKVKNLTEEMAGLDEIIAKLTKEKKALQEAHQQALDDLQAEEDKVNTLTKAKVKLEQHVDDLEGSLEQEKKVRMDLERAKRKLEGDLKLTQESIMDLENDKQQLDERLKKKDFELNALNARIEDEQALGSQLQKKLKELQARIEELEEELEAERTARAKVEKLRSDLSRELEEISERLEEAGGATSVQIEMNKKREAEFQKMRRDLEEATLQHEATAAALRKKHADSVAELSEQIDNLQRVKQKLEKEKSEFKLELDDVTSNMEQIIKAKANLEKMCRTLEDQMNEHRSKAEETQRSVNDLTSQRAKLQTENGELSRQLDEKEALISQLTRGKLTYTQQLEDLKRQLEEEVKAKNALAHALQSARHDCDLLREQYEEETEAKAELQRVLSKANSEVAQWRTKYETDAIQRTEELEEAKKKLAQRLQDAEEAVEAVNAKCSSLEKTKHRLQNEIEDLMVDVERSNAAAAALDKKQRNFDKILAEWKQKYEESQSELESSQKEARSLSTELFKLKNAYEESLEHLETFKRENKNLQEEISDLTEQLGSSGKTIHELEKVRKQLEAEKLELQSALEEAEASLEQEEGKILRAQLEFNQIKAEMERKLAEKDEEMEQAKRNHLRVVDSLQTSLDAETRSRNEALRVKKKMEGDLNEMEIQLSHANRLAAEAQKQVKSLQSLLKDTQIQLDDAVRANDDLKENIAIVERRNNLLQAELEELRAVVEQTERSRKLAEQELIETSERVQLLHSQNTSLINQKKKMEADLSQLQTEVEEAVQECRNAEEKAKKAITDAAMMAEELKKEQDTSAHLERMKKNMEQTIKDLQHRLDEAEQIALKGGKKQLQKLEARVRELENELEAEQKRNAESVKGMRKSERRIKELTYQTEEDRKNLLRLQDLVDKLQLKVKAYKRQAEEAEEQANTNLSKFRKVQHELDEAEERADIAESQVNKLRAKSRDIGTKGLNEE
T1 sequence (P85100 whole entry partner): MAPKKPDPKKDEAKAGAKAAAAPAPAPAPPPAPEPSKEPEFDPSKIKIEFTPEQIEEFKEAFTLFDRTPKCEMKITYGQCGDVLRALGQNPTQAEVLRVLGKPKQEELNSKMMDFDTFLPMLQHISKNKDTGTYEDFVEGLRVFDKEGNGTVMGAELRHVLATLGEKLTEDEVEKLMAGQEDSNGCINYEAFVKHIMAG
T1 sequence (Q3SZE5 whole entry partner): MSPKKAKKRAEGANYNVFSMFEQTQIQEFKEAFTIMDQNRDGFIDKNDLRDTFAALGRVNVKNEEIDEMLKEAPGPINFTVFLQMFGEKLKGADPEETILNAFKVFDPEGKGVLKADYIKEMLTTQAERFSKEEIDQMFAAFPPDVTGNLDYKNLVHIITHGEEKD

Broadly, the IC50 is the concentration that inhibits the measured activity by half. Turning to `Cc1cc(NC(=O)C2CCc3cc(-c4noc(C(C)C)n4)ccc32)ccn1` (single isomer, unassigned) [Compound 23A], the “CDMF75 IC15” value turned out to be 3.6 µM and the IC50 came out at 14.6 µM.
For `Cc1cc(NC(=O)C2CCc3cc(-c4noc(C(C)C)n4)ccc32)ccn1` (single isomer, unassigned) [Compound 23B] the same measures were greater than 39.2 µM and greater than 39.2 µM.
The like results for `CCc1nc(-c2ccc3c(c2)CCC32COC(=O)N2)no1` (single isomer, unassigned) [Compound 26A] were, in that order, 31.0 µM and greater than 39.2 µM.
The like results for `CCc1nc(-c2ccc3c(c2)CCC32COC(=O)N2)no1` (single isomer, unassigned) [Compound 26B] were, in that order, 0.3 µM and 1.6 µM.
As to `Cc1nc(-c2ccc3c(c2)CCC32COC(=O)N2)no1` (single isomer, unassigned) [Compound 29A], the “CDMF75 IC15” value was greater than 39.2 µM and the IC50 was greater than 39.2 µM.
`Cc1nc(-c2ccc3c(c2)CCC32COC(=O)N2)no1` (single isomer, unassigned) [Compound 29B]: the “CDMF75 IC15” value stood at 2.1 µM and the IC50 was determined as 9.1 µM.
The like results for `CC(C)c1nc(-c2ccc3c(c2)CCC32COC(=O)N2)no1` (single isomer, unassigned) [Compound 32A] were, in that order, 1.5 µM and 6.3 µM.
Regarding `CC(C)c1nc(-c2ccc3c(c2)CCC32COC(=O)N2)no1` (single isomer, unassigned) [Compound 32B], the “CDMF75 IC15” value is greater than 39.2 µM and the IC50 is greater than 39.2 µM.
For `O=C1NC2(CCc3cc(-c4noc(C5CC5)n4)ccc32)CO1` (single isomer, unassigned) [Compound 35A] the same measures were greater than 39.2 µM and greater than 39.2 µM.
The like results for `O=C1NC2(CCc3cc(-c4noc(C5CC5)n4)ccc32)CO1` (single isomer, unassigned) [Compound 35B] were, in that order, 0.6 µM and 3.4 µM.
The like results for `O=C1NC2(CCc3cc(-c4noc(C(F)F)n4)ccc32)CO1` (single isomer, unassigned) [Compound 38A] were, in that order, 1.8 µM and 7.5 µM.
Take `O=C1NC2(CCc3cc(-c4noc(C(F)F)n4)ccc32)CO1` (single isomer, unassigned) [Compound 38B]: the “CDMF75 IC15” value was greater than 39.2 µM and the IC50 is greater than 39.2 µM.
For `CCc1nc(-c2ccc3c(c2)OCC32COC(=O)N2)no1` (single isomer, unassigned) [Compound 41A] the same measures were 0.2 µM and 1 µM.
The like results for `CCc1nc(-c2ccc3c(c2)OCC32COC(=O)N2)no1` (single isomer, unassigned) [Compound 41B] were, in that order, greater than 39.2 µM and greater than 39.2 µM.
For `CCc1nc(-c2ccc3c(c2)CCC3C(=O)Nc2cnn(C)c2)no1` (stereo not drawn) [Compound 1, 5-(5-ethyl-1,2,4-oxadiazol-3-yl)-N-(1-methyl-1H-pyrazol-4-yl)-2,3-dihydro-1H-indene-1-carboxamide] the same measures were 3.9 µM and 15.9 µM.
